# Measured values taken from ChEMBL document CHEMBL1147626, “Determination of the stable conformation of GABA(A)-benzodiazepine receptor bivalent ligands by low temperature NMR and X-ray analysis” (Bioorg Med Chem Lett, 2004).
# Target: T1, GABA-A receptor; alpha-3/beta-3/gamma-2 (Homo sapiens, UniProt P18507+P28472+P34903)
# T1 sequence (P18507 whole entry): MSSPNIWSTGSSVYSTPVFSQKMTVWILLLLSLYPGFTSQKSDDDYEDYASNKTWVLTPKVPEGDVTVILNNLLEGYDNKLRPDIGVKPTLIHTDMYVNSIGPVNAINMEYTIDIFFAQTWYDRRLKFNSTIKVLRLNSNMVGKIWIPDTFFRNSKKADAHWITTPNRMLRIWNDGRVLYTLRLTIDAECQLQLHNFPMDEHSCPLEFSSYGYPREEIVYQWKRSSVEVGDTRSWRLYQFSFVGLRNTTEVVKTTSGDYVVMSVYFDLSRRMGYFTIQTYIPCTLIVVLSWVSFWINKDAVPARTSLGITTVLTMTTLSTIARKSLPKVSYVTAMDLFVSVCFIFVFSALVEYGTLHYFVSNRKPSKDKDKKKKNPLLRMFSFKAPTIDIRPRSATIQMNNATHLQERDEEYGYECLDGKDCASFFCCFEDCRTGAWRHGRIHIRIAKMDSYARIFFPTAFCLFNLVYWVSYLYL
# T1 sequence (P28472 whole entry): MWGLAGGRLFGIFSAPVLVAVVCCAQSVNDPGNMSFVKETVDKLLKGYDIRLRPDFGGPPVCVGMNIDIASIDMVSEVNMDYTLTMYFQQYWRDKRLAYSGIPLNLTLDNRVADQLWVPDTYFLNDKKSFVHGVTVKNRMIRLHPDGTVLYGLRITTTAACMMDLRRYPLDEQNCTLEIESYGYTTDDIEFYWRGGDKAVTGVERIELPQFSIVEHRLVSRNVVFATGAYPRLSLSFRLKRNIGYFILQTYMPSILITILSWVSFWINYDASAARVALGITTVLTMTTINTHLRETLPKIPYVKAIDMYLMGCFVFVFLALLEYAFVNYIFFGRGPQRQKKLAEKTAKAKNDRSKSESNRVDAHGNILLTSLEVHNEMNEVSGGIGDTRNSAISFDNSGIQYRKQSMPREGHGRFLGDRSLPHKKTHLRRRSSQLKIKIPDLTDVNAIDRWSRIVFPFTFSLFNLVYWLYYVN
# T1 sequence (P34903 whole entry): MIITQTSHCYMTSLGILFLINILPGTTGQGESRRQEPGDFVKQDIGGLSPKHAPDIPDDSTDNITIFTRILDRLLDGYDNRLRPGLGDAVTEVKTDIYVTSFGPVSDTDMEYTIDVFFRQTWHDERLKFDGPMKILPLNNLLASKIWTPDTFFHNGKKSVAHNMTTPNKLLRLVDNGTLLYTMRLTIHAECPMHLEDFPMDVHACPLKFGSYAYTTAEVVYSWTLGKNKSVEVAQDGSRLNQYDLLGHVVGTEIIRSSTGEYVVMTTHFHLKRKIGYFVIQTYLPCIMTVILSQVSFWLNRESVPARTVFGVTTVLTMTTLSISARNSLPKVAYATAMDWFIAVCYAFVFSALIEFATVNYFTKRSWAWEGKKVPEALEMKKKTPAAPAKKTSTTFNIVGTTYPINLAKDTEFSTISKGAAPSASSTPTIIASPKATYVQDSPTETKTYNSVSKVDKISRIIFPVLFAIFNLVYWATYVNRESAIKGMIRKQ
# Assay: In vitro inhibition of [3H]-Ro- 15-1788 binding to human GABA-A receptor alpha-3-beta-3-gamma-2 subunits expressed in L(tk-)cells
# Assay type: cell-based
structure (smiles),measurement,value
C#Cc1ccc2c(c1)C(=O)N(C)Cc1c(C(=O)OCCCOC(=O)c3ncn4c3CN(C)C(=O)c3cc(C#C)ccc3-4)ncn1-2,Ki,858 nM
